Measured values published in patent publication US20050260164A1, “Gene regulation with aptamer and modulator complexes for gene therapy” (priority 2002, published 2005).

Tests used:
[1] = test system: MPTP-ablated monkeys; assay: Parkinsonian clinical rating scale (CRS) in MPTP-ablated monkeys; assay type: in vivo, rhesus; details: diflucan continuously 3-12 mg/kg x day in animal previously treated with Lenti-GDNF
Description: Twenty young adult rhesus are initially trained 3 days per week until asymptotic performance is achieved on a hand-reach task in which the time to pick up food treats out of recessed wells is measured (M. E. Emborg, et al., J. Comp. Neurol. 401, 253 (1998); J. H. Kordower, Cell Transplant. 4, 155 (1995)). Each experimental day, monkeys receive 10 trials per hand. Once per week, monkeys are also evaluated on a modified parkinsonian clinical rating scale (CRS) to obtain a measurement of baseline performance. All monkeys then receive an injection of 3 mg MPTP-HCl into the right carotid artery, initiating a Parkinsonian state. One week later, monkeys are evaluated on the CRS. Only monkeys displaying severe hemi-Parkinsonism with the classic crooked arm posture and dragging leg on the left side continue in the study.
On the basis of CRS scores, monkeys are matched into three groups of five monkeys, which receive on that day: lentiviral vector expressing-b-galactosidase (Lenti-βgal) (group 1); Lenti-GDNF plus continuous treatment with diflucan (group 2); or Lenti-GDNF treatment alone (group 3). […]
One week following lentiviral vector treatment, monkeys begin retesting on the hand-reach task three times per week for 3 weeks per month. […] During the weeks of hand-reach testing, monkeys are also scored once per week on the CRS. […]

[2] = test system: GDNF; assay: GDNF expression in brain of MPTP-ablated monkeys (immunohistochemistry, ELISA); assay type: in vivo, rhesus
Description: After euthanasia, all monkeys are perfused with saline. The brain is removed, immersed in ice-cold saline for 10 min, and sliced on a monkey brain slicer. Slabs through the head of the caudate and putamen are punched bilaterally with a 1 mm brain punch. These punches are processed for HPLC for determination of catecholamine content. Brain punches are also homogenized in 150:1 buffer I [0.1M tris-buffered saline, pH 8.1, containing 1 mM EDTA, 1% aprotinin, 10 mg/ml leupeptin, 14 mg/ml pepstatin, 4 mM phenylmethylsulfonyl fluoride (PMSF)] for 30 sec in the ice slurry. An equal amount of buffer II (0.1 M tris-buffered saline, pH 8.1, containing 1 mM EDTA, 1% aprotinin, 10 g/ml leupeptin, 14 μg/ml pepstatin, 4 mM PMSF, and 0.5% NP-40) is then added. The tubes are shaken for 2 hours. The supernatant is collected for ELISA and protein measurements. The ELISA reaction was completed in 96-well plate (Dynatech, Chantilly, Va.) according to the ELISA manufacturer's instructions (GDNF Emax ImmunoAssay Systems Kit G3520, Promega, Madison, Wis.). The optical densities are recorded in ELISA plate reader (at 450 nm wave length; Dynatech). […] The concentrations of GDNF are calculated against six-point standard curve and then adjusted to picograms of GDNF per milligram of total protein. The total protein in each tissue lysate is measured using Bio-Rad protein assay kit (Bio-Rad, Richmond, Calif.). […]

## OC(Cn1cncn1)(Cn1cncn1)c1ccc(F)cc1F [Diflucan, Fluconazole]
[1]
  therapeutic effect in Parkinson's model monkeys: no therapeutic effect
[2]; diflucan continuously 3-12 mg/kg x day in animal previously treated with Lenti-GDNF
  GDNF expression: switched off
[2]; diflucan treated animals compared to animals where diflucan is omitted
  levels of GDNF in the brains: no significant levels of GDNF
